Test results taken from US8557290B2, “Multifunction nanoconjugates for imaging applications and targeted treatment” (priority 2008, dated 2013).

How the values were obtained:
[1] = system: plasmid DNA (pKaede-MN1 plasmid with R18 insert); experiment: Light-induced plasmid DNA cleavage, agarose gel electrophoresis; format: biochemical
Experimental: Reactions containing plasmid DNA and either buffer, alizarin red s, TiO2 nanoparticles, or alizarin red s-coated TiO2 nanoparticles were incubated at 37° C. for 10 minutes and either kept in the dark or illuminated with a 75 watt halogen bulb for 5-10 minutes (FIG. 36). Samples were then run via electrophoresis at 50 volts for 4 hours on a 1.25% agarose gel and scanned on a Typhoon Trio multi-mode imager to visualize the different resulting configurations of plasmid DNA (FIG. 36). […] To confirm the identities of plasmid configurations resulting from excitation of alizarin red s-coated TiO2 nanoparticles, supercoiled, nicked, and linearized plasmid DNA bands were excised and purified from the agarose gel.
The role of the latter was investigated by expanding upon previous experiments and using TiO2 nanoparticles that were coated with glycidyl isopropyl ether (GIE), which reduces interaction between the nanoparticle surface and its surrounding environment (Paunesku et al Nat. Mater. 2003, 2, 343-346; Rajh et al Nano Lett. 2004, 4, 1017-1023). Plasmid samples containing either GIE, GIE and alizarin red s, or GIE-alizarin red s-coated TiO2 nanoparticles were illuminated for 5 minutes with 150W halogen bulb (FIG. 39).
The effect of conjugating different peptide nucleic acid sequences to GIE-alizarin-coated TiO2 nanoparticles on DNA cleavage was investigated (FIG. 40A).

PC-3M cells = settings: human, 24 h, 20 mM
Experimental: All cell culture reagents were purchased from Mediatech Inc. unless otherwise specified. […] Both cell lines were maintained at 37° C. with 5% CO2 in RPMI 1640 media supplemented with fetal bovine serum (10%), L-glutamine (2 mM), HEPES (10 mM), penicillin (100 I.U./ml), streptomycin (100 μg/ml). […] PC-3M cells were further supplemented with G418 sulfate (0.15 mg/ml). For treatment, cells were washed with phosphate buffered saline solution (PBS) and placed in serum free RPMI 1640 for 1-2 hours. Then cells were treated with TiO2 nanoparticles (333 nM) coated with or without ARS (60 μM), and/or ODN (160 μM) for one hour. […]
After treatment and washing, cells were trypsinized, collected in FBS supplemented medium, and brought to a single cell suspension. […] Samples were then taken to the Northwestern University Flow Cytometry Core Facility of the Robert H. Lurie Cancer Center to be analyzed or sorted on the DakoCytomation MoFlo Flow Cytometer (Dako). […]
Labeling the nanoparticles, however, allowed one to screen the treated cells simultaneously for nanoparticle uptake (by ARS fluorescence) and for viability (by use of fluorescent cell-impermeable dye). […] Flow cytometry was then used to quantify both the extent of nanoparticle uptake within the cell population, and the cells' ability to exclude cell-impermeable DAPI as an indicator of cell viability.

MCF-7 cells [2] = experiment: Intracellular localization by confocal fluorescent microscopy; settings: 1 hour treatment
in vitro = settings: rat
MCF-7 cells [3] = experiment: Intracellular Gd by ICP-MS of agarose phantoms with embedded cells; format: cell-based, human; settings: 48 hours after transfection
Experimental: Sections of agarose phantoms with embedded cells were analyzed by ICP-MS.

[4] = system: MCF-7/WS8 breast cancer cells; experiment: MRI T1 and signal intensity of MCF-7 cells transfected with SuperFect reagent, in agarose phantoms; format: cell-based, human; settings: for T1 value, Equation method / T1 value, Null point method / Signal intensity: SuperFect; for T1 value, Equation method / T1 value, Null point method: 48 hours after treatment, 1.5 T; for Signal intensity: T1-weighted
Experimental: For transfection experiments MCF-7/W8/WS8 breast cancer cells (American Type Culture Collection, ATCC, Manassas, Va.) and PC3-M prostate cancer cells (ATCC) were grown in a 5% CO2 humidified atmosphere in RPMI1640 cell culture medium (this and all other standard cell culture supplements were from Invitrogen/Gibco, Carlsbad, Calif.) supplemented with 10% fetal bovine serum and antibiotic-antimycotic. MCF-7/WS8 medium also contained insulin at a concentration of 10 μg/mL (Sigma, St. Louis, Mo.), 200 mM 1-glutamine, and 10 mM nonessential amino acids; PC3-M medium also contained 25 μg/mL G418 and 2.4 mg/mL HEPES. Nearly confluent cells were serum-starved for 16 to 20 hours before transfection or treatment.
For SuperFect transfection, 60 μL of SuperFect reagent (Qiagen, Valencia, Calif.) and 300 μL of any one of the following: (1) Gd contrast agent, (2) TiO2 nanoparticles, or (3) TiO2-DNA-Gd nanoconjugates were used; these mixtures were applied onto 16 million cells each. Final concentrations of these agents in the medium were (1) 144 μM Gd; (2) 0.12 μM TiO2 nanoparticles, or (3) TiO2-DNA-Gd nanoconjugates wherein TiO2 nanoparticles were 0.12 μM and Gd was 75.6 μM in concentration. Media were exchanged for fresh complete cell media 24 hours later and, after an additional 24-hour incubation, cells were harvested for imaging.
In all cases, cells harvested for MRI were embedded in 300 μL agarose phantoms. Once the MRI was completed, these phantoms were used for ICP-MS and/or preparation of paraffin-embedded samples for sectioning and imaging by x-ray fluorescence microscopy.
To prepare samples for MRI, 150 μL of Hank's balanced buffered salt solution (HBBS; Invitrogen/Gibco) containing cells were mixed with 2% agarose melted in 150 μL of HBBS. Cells in agarose solidified as a plug and were transferred into tubes, placed in a water bath, and imaged using a 1.5 T Siemens Sonata system (Erlangen, Germany) with a four-channel head coil for signal reception and body coil for excitation. T 1 of each sample was measured using an inversion recovery sequence with repetition time (TR)=4000 ms and inversion times of 50, 200, 500, 800, 1000, 1200, 1500, and 2000 ms. Other scan parameters were: field of view=125×200 mm^2; acquisition matrix=115×192; readout bandwidth=965 Hz/pixel; slice thickness=5 mm; all images were acquired in the coronal orientation.
For data analysis the raw data of signal intensity versus TI were fit to the equation: Signal intensity=abs(A*(1−2*exp(−R1*TI))+C, where R1=1/T1. Variables A and C are free parameters of the model. The confidence interval was determined statistically; R2 indicates goodness of fit. The TI corresponding to the lowest signal intensity (TInull) is an indication of the T1 value; this relationship can be estimated by the equation: T1=TInull/ln(2). T1 values determined using the results of the equation fit and the null point relationship are listed in Table 2. Signal intensity, a quantitative metric of relative brightness, was measured with a circular region-of-interest within each sample.

With O=C1c2ccccc2C(=O)c2c1cc(S(=O)(=O)O)c(O)c2O [ARS, 1,2 dihydroxyanthraquinone-3-sulfonate] the “plasmid DNA cleavage upon light exposure” value ([1]; 75 watt halogen bulb, 5-10 minutes) was “increase in the presence of nicked plasmid”.
For CC(C)OCC1CO1 (centres unmarked) [GIE, glycidyl isopropyl ether], the “plasmid DNA cleavage upon light exposure” value ([1]; 150W halogen bulb, 5 minutes, three replicate experiments) was “not cleaved”.
In the case of OO [H2O2, hydrogen peroxide], the reduction in viability (PC-3M cells) was “approximately 54%”.
With COc1cccc2c1C(=O)c1c(O)c3c(c(O)c1C2=O)C[C@@](O)(C(=O)CO)C[C@@H]3O[C@H]1C[C@H](N)[C@H](O)[C@H](C)O1 [free doxorubicin, Doxorubicin] the subcellular localization (MCF-7 cells [2]) was “predominantly located in the cell nucleus” and the viability at 4 days, 1.72 μM (in vitro) was 79.6%.
In the case of “PGA-1,6-hexanediamine-(Gd-DOTA)-dopamine conjugate”, the “intracellular concentration of Gd (average)” value (MCF-7 cells [3]; 5×10^6 cells, ICP-MS) was 0.75 µM, the “Gd retention relative to Gd in cell media” value (MCF-7 cells [3]) was 0.5% and the “T1 value, Equation method” value ([4]; 5 × 10^5 cells) was 1799. The “T1 value, Null point method” value ([4]; 5 × 10^5 cells) was 1436, the Signal intensity ([4]; 5 × 10^5 cells, inversion time 1000 ms) was 33 and the “T1 value, Equation method” value ([4]; 5 × 10^6 cells) was 1625. For the same molecule, the “T1 value, Null point method” value ([4]; 5 × 10^6 cells) was 1235, the Signal intensity ([4]; 5 × 10^6 cells, inversion time 1000 ms) was 71 and the “T1-weighted signal enhancement of treated cells” value ([4]; T1-weighted images, inversion time 1000 ms, 24 or 48 hours after treatment) was “no T1-weighted enhancement”.
